Data: ChEMBL document CHEMBL1201862, “PubChem BioAssay data set” (2004)
Activity calls are given as the source filed them.

What was measured:
[1] = target: T1, Fatty acid synthase (Homo sapiens, UniProt P49327); experiment: inhibition of human FAS-TE enzyme activity – biochemical, kinetic fluorescence intensity, dose response (AID 624326); format: functional;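 note: rate of fluorescence rise from hydrolysis of a fluorogenic O-methyl fluorescein ester substrate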
[2] = target: T1, Fatty acid synthase; experiment: inhibition of human FAS-TE enzyme activity – biochemical, endpoint fluorescence intensity, uHTS hits, dose response (AID 624327); format: functional;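 note: fluorescence from hydrolysis of an O-methyl fluorescein acyl ester substrate by the enzyme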
[3] = target: T2, Polyadenylate-binding protein 1 (Homo sapiens, UniProt P11940); experiment: MLLE binding blockers, Cy5 peptide tracer – biochemical, fluorescence polarization, Cy5-PAM2 peptide, secondary, miRNA deadenylation inhibitor project, dose response (AID 602260); format: functional; conditions: read-out: IC50_Mean
T2 sequence (P11940 whole entry, the tested form may be a part): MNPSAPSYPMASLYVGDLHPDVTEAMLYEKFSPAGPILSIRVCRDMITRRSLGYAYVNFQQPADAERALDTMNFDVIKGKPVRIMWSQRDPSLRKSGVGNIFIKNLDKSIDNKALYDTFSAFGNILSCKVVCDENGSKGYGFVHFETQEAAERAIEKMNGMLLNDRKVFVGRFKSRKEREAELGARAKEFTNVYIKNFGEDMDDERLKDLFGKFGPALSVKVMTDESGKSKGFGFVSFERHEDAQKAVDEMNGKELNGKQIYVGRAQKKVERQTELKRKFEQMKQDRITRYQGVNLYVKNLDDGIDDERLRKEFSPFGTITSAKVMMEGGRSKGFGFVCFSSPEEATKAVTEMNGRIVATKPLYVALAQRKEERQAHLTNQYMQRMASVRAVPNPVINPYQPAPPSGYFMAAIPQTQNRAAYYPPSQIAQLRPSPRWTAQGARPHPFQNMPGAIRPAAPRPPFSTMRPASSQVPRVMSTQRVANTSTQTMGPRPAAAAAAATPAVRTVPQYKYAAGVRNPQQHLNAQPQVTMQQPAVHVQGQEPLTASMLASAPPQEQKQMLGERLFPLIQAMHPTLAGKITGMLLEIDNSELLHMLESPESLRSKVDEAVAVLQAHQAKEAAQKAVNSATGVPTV

[4] = target: T2, Polyadenylate-binding protein 1; experiment: MLLE domain peptide-binding blockers, IC50 – biochemical, fluorescence polarization, FITC-PAM2 peptide, dose response (AID 602259); format: functional; conditions: read-out: IC50_Mean
[5] = Luminescence Cell-Based Dose Retest to Confirm Inhibitors of Cancer Stem Cells. [Related pubchem assays (depositor defined):AID2717, AID2721]; format: functional; conditions: Homo sapiens
[6] = target: T3, Calpain-2 catalytic subunit (Sus scrofa, UniProt P43367); experiment: m-calpain protease blockers, concentration series – biochemical, fluorogenic peptide substrate, dose response (AID 1420); format: functional
T3 sequence (P43367 whole entry): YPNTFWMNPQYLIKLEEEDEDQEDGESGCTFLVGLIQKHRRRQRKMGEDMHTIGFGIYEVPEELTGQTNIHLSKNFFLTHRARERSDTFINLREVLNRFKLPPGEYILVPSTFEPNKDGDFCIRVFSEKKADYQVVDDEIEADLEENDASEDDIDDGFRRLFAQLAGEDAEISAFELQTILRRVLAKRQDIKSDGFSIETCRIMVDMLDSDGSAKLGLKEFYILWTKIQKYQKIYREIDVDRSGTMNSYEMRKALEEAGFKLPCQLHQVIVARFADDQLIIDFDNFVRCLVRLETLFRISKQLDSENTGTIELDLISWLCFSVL

[7] = target: T4, Protein RecA (Mycobacterium tuberculosis, UniProt P9WHJ3); experiment: Fluorescence Cell-Free Homogeneous Dose Retest to Identify Inhibitors of RecA-Intein Splicing Activity. [Related pubchem assays (depositor defined):AID2097, AID2223, AID489010, AID492950]; format: functional
T4 sequence (P9WHJ3 whole entry): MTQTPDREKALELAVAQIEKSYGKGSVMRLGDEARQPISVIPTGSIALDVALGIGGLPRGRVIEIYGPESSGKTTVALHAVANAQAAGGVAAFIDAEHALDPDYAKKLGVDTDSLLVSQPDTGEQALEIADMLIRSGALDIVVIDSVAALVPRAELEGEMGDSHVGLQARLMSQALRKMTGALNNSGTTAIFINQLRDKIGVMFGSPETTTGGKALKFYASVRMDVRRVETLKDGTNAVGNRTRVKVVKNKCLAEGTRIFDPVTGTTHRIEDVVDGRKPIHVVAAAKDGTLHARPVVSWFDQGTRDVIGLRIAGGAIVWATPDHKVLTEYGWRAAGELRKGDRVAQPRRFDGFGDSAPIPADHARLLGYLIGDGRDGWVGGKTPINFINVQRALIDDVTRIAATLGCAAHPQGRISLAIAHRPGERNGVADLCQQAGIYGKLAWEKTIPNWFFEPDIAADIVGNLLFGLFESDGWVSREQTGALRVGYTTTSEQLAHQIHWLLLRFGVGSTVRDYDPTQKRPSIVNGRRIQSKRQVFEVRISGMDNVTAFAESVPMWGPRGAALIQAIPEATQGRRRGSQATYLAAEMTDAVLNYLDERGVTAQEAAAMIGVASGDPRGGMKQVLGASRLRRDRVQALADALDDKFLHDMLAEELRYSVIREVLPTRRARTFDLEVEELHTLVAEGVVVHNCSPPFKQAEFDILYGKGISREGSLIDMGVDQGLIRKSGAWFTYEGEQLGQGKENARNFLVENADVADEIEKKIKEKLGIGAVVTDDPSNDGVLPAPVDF

[8] = target: T5, Replicative DNA helicase DnaB (Mycobacterium tuberculosis, UniProt P9WMR3); experiment: DnaB intein splicing inhibitors, dose response, biochemical, cell-free fluorescence (AID 449749); format: functional
T5 sequence (P9WMR3 whole entry): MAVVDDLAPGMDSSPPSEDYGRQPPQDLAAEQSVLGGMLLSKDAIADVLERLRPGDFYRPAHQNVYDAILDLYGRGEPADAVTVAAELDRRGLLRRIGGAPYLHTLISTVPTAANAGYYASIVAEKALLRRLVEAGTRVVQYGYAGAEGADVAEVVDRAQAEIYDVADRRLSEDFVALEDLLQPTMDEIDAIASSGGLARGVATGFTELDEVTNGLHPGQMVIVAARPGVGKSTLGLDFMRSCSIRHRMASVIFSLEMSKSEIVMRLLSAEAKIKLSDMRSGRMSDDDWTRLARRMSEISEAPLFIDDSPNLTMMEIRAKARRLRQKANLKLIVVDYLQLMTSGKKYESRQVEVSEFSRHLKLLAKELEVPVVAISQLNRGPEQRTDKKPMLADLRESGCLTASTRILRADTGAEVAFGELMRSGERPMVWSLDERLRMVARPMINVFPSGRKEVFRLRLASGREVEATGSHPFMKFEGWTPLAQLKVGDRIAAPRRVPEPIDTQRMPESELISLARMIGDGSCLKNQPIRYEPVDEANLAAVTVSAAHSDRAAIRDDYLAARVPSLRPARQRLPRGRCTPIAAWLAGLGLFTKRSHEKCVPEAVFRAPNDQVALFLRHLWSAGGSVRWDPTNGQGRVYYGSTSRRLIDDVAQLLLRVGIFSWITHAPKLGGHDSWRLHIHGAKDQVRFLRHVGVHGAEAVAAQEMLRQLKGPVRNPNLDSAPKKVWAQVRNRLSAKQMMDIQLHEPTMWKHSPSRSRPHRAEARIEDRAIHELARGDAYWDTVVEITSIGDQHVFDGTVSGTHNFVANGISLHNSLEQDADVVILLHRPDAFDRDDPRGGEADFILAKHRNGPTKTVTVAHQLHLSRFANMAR

[9] = Trypanosoma cruzi growth suppression in host cells – NIH3T3 host cells, beta-gal luminescence, confirmation (AID 2044); format: functional, cell-based;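 note: intracellular parasites grown in NIH/3T3 mouse fibroblasts as host cells; luminescent beta-galactosidase reporter signal from transgenic T. cruzi replicating inside host cells; inhibitors lower the luminescence signal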
[10] = viability of uninfected HEp-2 cells – cell-based, HTS, cytotoxicity control for RSV inhibitor project, dose response (AID 2410); format: functional; conditions: human respiratory syncytial virus
[11] = NIH3T3 cell viability loss – ATP luminescence, mouse fibroblasts, counter-screen, dose response (AID 2010); format: functional, cell-based;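 note: cells exposed to compound for about 90 hours before reading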
[12] = target: FAD-linked sulfhydryl oxidase ALR (Homo sapiens, UniProt P55789); experiment: ALR-catalysed DTT oxidation blockers – biochemical, H2O2 detection, luminescence, cherry-pick, dose response (AID 493248)
Sequence of FAD-linked sulfhydryl oxidase ALR (P55789 whole entry): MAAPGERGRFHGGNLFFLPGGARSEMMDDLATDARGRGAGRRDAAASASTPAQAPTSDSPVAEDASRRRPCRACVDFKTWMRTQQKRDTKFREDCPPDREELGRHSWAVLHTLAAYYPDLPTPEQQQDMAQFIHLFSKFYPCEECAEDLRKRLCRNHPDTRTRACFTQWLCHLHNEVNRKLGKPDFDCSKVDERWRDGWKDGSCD

[13] = target: Paired box protein Pax-8 (Homo sapiens, UniProt Q06710); experiment: PAX8 transcriptional activity inhibition in RMG-I – RMG-I cells, luciferase, cherry-pick, dose response (AID 687027); format: functional, cell-based;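 note: luciferase reporter driven by Pax8 target thyroperoxidase promoter measured by SteadyGlo luminescence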
Sequence of Paired box protein Pax-8 (Q06710 whole entry): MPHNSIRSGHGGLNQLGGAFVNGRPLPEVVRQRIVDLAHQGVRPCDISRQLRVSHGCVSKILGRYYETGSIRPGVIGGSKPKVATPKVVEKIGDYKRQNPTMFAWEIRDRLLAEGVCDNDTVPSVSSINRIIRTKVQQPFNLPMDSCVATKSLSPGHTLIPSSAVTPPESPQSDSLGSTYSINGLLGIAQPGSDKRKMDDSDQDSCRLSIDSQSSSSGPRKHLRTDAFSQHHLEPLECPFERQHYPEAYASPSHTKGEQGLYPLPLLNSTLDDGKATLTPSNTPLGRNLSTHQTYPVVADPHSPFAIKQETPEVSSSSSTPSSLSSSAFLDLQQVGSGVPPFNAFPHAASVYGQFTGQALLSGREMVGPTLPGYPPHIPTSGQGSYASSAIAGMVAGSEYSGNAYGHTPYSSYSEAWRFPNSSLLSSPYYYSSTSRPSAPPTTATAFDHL

[14] = target: Genome polyprotein (dengue virus type 2, UniProt P29990); experiment: flavivirus cap methylation enzyme inhibition – biochemical, confirmation dose response, primary screen (AID 588689); format: functional
Sequence of Genome polyprotein (P29990 2492-3391 limits assumed): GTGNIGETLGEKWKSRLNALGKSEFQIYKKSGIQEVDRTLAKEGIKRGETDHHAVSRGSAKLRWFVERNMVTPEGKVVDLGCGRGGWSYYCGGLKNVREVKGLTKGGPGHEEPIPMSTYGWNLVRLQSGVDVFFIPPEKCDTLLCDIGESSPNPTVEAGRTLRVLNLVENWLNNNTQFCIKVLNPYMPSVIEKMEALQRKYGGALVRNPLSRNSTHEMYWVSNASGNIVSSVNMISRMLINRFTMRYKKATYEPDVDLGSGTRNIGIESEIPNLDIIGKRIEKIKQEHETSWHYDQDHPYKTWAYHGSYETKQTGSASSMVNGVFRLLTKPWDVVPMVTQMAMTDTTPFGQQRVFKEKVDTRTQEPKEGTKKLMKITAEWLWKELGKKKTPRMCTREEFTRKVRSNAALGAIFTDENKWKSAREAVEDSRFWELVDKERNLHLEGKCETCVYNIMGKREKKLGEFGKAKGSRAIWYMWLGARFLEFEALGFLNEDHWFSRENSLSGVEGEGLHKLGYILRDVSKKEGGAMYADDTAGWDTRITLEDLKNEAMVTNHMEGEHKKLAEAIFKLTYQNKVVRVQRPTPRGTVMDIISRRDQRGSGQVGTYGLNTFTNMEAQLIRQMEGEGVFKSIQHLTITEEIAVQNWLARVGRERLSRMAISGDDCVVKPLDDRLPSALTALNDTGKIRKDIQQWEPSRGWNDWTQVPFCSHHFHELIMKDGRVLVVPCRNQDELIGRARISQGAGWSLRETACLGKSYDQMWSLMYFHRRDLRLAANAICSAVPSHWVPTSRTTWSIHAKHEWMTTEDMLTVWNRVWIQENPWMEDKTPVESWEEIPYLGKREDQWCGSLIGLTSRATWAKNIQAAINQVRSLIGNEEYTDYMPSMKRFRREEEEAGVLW

[15] = target: T6, Cytochrome P450 1A2 (Homo sapiens, UniProt P05177);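 note: PubChem cytochrome P450 panel assay, CYP1A2 panel member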
T6 sequence (P05177 whole entry): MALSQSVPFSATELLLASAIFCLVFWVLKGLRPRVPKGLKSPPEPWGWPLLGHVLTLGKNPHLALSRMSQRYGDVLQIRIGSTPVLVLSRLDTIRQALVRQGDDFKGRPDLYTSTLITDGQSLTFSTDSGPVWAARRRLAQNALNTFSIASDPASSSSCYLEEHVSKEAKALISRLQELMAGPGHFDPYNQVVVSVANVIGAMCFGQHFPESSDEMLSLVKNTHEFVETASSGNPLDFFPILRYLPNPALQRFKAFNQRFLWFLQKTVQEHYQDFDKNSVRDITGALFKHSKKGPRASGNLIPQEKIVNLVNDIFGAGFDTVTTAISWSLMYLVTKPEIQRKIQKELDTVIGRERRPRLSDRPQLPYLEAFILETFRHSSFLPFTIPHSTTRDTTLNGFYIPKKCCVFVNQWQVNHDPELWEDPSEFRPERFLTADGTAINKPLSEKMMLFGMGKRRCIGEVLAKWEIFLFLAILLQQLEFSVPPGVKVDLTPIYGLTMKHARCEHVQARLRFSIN

T1 sequence (P49327 whole entry): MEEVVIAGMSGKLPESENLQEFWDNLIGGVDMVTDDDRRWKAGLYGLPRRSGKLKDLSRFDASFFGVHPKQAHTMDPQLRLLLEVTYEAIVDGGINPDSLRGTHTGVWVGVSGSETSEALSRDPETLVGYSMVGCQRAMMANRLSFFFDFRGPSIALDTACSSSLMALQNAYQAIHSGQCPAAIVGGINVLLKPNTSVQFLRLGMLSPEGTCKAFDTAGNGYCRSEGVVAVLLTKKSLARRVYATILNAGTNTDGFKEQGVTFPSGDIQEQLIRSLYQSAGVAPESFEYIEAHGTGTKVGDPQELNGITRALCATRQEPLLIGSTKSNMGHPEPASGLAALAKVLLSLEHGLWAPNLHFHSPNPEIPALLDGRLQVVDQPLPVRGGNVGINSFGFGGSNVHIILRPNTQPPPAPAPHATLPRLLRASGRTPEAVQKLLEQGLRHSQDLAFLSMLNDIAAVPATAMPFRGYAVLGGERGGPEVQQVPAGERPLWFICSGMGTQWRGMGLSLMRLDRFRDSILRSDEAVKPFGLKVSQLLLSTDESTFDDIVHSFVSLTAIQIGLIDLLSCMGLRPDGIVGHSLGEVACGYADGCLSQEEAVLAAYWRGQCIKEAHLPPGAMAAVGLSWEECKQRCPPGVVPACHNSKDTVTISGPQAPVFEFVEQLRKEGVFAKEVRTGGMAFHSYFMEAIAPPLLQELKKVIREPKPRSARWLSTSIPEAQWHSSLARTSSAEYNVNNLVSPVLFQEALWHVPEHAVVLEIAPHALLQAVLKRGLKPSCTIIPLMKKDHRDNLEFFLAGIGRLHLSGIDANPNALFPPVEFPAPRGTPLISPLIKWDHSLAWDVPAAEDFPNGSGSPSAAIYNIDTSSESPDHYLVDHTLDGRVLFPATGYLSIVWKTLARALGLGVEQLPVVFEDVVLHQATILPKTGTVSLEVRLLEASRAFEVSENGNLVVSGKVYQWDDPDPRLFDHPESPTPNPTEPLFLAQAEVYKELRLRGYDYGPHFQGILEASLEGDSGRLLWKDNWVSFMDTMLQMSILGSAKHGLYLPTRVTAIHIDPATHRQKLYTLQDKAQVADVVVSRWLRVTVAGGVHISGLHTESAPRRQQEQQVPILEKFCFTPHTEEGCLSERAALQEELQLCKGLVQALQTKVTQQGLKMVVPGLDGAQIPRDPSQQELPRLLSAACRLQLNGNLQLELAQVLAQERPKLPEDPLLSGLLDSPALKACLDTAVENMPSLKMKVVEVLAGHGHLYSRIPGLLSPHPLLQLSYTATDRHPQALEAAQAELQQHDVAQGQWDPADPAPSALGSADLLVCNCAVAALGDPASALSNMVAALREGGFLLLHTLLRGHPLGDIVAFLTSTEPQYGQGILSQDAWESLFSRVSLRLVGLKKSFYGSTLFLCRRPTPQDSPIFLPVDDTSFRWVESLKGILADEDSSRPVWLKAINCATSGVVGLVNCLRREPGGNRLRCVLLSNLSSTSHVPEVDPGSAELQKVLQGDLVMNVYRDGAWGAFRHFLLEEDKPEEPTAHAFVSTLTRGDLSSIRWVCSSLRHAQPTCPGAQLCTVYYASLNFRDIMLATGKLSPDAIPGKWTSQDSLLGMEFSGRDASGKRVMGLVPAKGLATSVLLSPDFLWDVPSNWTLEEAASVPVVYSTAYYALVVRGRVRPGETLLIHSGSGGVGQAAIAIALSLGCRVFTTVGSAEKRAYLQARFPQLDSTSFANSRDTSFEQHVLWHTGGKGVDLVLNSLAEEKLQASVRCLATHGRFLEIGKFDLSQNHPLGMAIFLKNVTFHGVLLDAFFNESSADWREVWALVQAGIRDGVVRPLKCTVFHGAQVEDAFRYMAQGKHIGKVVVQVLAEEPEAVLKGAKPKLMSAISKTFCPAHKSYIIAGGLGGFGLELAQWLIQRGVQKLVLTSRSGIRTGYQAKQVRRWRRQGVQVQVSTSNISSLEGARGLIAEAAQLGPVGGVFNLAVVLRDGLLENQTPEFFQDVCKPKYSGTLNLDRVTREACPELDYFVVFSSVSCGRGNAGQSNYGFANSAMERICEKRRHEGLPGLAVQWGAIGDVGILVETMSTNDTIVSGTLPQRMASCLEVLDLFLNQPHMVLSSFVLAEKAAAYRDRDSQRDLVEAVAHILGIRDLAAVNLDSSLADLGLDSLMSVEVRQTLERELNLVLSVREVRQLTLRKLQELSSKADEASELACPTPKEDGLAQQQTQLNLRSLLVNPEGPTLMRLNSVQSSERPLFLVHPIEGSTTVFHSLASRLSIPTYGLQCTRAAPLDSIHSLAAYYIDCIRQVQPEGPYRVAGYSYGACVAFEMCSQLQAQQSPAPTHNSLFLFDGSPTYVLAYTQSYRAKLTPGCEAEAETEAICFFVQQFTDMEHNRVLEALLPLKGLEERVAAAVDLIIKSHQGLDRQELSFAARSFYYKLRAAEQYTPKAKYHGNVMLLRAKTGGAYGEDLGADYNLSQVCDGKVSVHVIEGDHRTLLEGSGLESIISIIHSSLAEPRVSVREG

O=C(Cn1c(=O)c2sccc2n(Cc2cccc([N+](=O)[O-])c2)c1=O)NCCc1ccccc1
IC50 [1]: 26.7 µM (inactive) | IC50 [2]: 11.1 µM (active)

O=C(O)CCN1C(=O)C(=C2CCCCCC2)SC1=S
IC50 [3]: > 66 µM (inactive) | IC50 [4]: > 66 µM (inactive) | AC50 [5]: 40.8 µM (active)

CCc1c(O)nc(SCC(=O)N2CCc3cc(OC)c(OC)cc3[C@@H]2C)nc1O
IC50 [3]: > 66 µM (inactive) | IC50 [4]: > 66 µM (inactive)

COc1cccc(C2=CC(c3ccc(OC)c(OC)c3)NC(S)=N2)c1 (centres undefined)
IC50 [6]: 2.81 µM (not active)

COc1ccc(OC)c(NC(=O)CSc2nc3ccccc3c3nc4ccccc4n23)c1
IC50 [6]: > 50 µM (not active)

O=C(CCNC(=O)c1ccc([N+](=O)[O-])cc1)NCc1ccccc1
IC50 [1]: 10.4 µM (active) | IC50 [2]: 11.3 µM (active)

COc1cc(/C=C2/C(=O)N(c3ccc(C)c(C)c3)N=C2C)cc([N+](=O)[O-])c1O
EC50 [7]: 8.54 µM (active) | AC50 [8]: 11.3 µM (active)

O=C(Cn1nnc(-c2cc(C(F)(F)F)cc(C(F)(F)F)c2)n1)NN=C(S)Nc1ccc(Cl)cc1
IC50 [3]: > 66 µM (inactive) | IC50 [4]: > 66 µM (inactive)

Fc1cccc(Cn2cc(C(=S)N3CCCCC3)c3ccccc32)c1
IC50 [6]: 2.86 µM (not active)

Cc1ccc2nc(N=C(N)NS(=O)(=O)c3ccc([N+](=O)[O-])cc3)nc(C)c2c1
EC50 [9]: 0.199 µM (active) | CC50 [10]: 35.2 µM (active) | IC50 [1]: 14.5 µM (active) | IC50 [2]: 12.2 µM (active) | EC50 [11]: > 60 µM (not active)

COc1ccc(S(=O)(=O)N2CCC(NC(=O)OCc3c(Cl)cccc3Cl)CC2)cc1
IC50 [6]: 7.91 µM (not active)

CCCN(CCC)C(=O)CC(c1ccccc1)c1ccc(C)cc1O (centres undefined)
IC50 [6]: > 50 µM (not active)

CCCCN=C(S)Nc1cc([N+](=O)[O-])ccc1C
IC50 [1]: 14.1 µM (active) | IC50 [2]: 9.4 µM (active)

CS(=O)(=O)c1ccc2nc(NC3(C(F)(F)F)N=C4SCCN4C3=O)sc2c1 (centres undefined)
IC50 [3]: > 66 µM (inactive) | IC50 [4]: > 66 µM (inactive)

COc1ccccc1N1CC(C(=O)Nc2cc(C(F)(F)F)ccc2N2CCCC2)CC1=O (centres undefined)
IC50 [1]: 7.17 µM (active) | IC50 [2]: 6.81 µM (active)

Cc1ccc(Sc2ncnc3onc(C)c23)cc1
EC50 [7]: 6.8 µM (active) | AC50 [12]: 9.91 µM (active) | AC50 [8]: 14.9 µM (active)

CN(C)S(=O)(=O)c1ccc2c(c1)C(=O)c1cc(S(=O)(=O)N(C)C)ccc1CC2
IC50 [1]: 0.166 µM (active) | IC50 [2]: 0.176 µM (active)

CCC(C)(C)C1CCc2n[nH]c(C(=O)NCCCNC(=O)OC(C)(C)C)c2C1 (centres undefined)
IC50 [1]: 24.3 µM (inactive) | IC50 [2]: 0.524 µM (active)

CCN1CCN(c2c(Cl)cccc2NC(=O)c2ccc3c(c2)OCCO3)CC1
EC50 [7]: > 380 µM (inactive) | AC50 [8]: > 380 µM (inactive)

CC1=NN(c2ccccc2)C(=O)C1C(=S)SC1CC(=O)NC1=O (centres undefined)
IC50 [3]: > 66 µM (inactive) | IC50 [4]: > 66 µM (inactive)

CSCCC(c1nnnn1Cc1ccccc1)N1CCC(n2c(O)nc3ccccc32)CC1 (centres undefined)
AC50 [13]: 0.538 µM (active)

COc1ccc(C(O)c2nccc3cc(OC)c(OC)cc23)cc1OC (centres undefined)
EC50 [7]: 10.7 µM (active) | AC50 [8]: 3.56 µM (active)

Cc1[nH]n(C(N)=S)c(=O)c1C(c1ccccc1)C(C#N)C#N (centres undefined)
EC50 [7]: 12.9 µM (active) | AC50 [8]: 16.2 µM (active)

Cc1[nH]n(-c2ccccc2)c(=O)c1C(c1ccc(O)c([N+](=O)[O-])c1)c1c(C)[nH]n(-c2ccccc2)c1=O
EC50 [7]: 1.01 µM (active) | AC50 [8]: 2.53 µM (active) | IC50 [14]: 28.7 µM (active)

Cc1ccc(-n2[nH]c(C)c(/C=N/c3ccc4[nH]c(O)nc4c3)c2=O)cc1C
AC50 [15]: 12.6 µM (inconclusive) | IC50 [3]: 35.3 µM (inactive) | IC50 [4]: 22 µM (inactive)

O=C(CSc1ccccn1)N/N=C/c1c[nH]c2ccccc12
IC50 [6]: > 50 µM (not active)

O=C(NCC1CCCCC1)c1cc([N+](=O)[O-])ccc1Cl
IC50 [1]: 9.77 µM (active) | IC50 [2]: 13.8 µM (active)
